Laboratory results: patent US20220274979A1 (Bayer Pharma Aktiengesellschaft, priority 2018, published 2022)

Legend:
[1] = target: T1, hK-RasG12C - hSOS1 interaction (Homo sapiens, UniProt Q07889); experiment: Biochemical Assay 1: hK-RasG12C interaction assay with hSOS1 (HTRF); assay type: binding; details: for IC50: values expressed as IC50; for inhibition at 20 µM: read-out: Assay 1 (hKRAS, hSOS Interaction) activity (expressed as IC50, or as % inhibition at 20 μM)
T1 construct: hSOS1 (amino acid 564-1049); made in house; host or cells: E. coli BL21 (DE3)
T1 sequence (Q07889 with tags, fused parts or gaps): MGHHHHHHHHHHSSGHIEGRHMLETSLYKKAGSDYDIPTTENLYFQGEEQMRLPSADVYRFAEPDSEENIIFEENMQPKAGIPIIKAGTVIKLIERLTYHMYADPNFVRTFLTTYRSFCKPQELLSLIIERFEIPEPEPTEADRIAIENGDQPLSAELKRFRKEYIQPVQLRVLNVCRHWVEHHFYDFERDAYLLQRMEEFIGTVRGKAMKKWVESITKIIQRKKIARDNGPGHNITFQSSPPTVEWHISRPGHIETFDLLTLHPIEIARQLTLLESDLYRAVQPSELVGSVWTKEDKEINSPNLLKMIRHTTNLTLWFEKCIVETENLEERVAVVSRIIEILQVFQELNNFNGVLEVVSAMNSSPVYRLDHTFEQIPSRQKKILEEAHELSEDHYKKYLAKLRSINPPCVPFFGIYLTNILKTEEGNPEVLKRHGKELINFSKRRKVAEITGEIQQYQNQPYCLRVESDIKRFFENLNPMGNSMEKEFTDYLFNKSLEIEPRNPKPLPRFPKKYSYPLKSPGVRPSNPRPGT
Summary of the method: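 HTRF signal between GST-hK-RasG12C (10 nM working solution, anti-GST-Eu) and His-hSOS1 (20 nM working solution, anti-6His-XL665) was read in HEPES pH 7.4 buffer with 10 mM EDTA, 1 mM DTT and 100 mM KF at 20 °C.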

[2] = target: T2, hSOS1 (hSOS1-mediated nucleotide exchange of hK-RasG12C) (Homo sapiens, UniProt Q07889); experiment: Biochemical Assay 2: hK-RasG12C activation assay by hSOS1 at high GTP concentration (HTRF nucleotide exchange); details: high GTP (50 μM GTP)
T2 construct: hSOS1 (amino acid 564-1049); made in house; host or cells: E. coli BL21 (DE3)
T2 sequence (Q07889 with tags, fused parts or gaps): T1 sequence (Q07889 with tags, fused parts or gaps)

Compound	IC50 [1]	IC50 [2]	inhibition at 20 µM [1]
Cc1nc(N[C@H](C)c2ccc(F)cc2)c2cc(OCC3CCOCC3)ncc2n1 [Example 11, N-[1R)-1-(4-fluorophenypethyl]-2-methyl-6-(tetrahydro-2H-pyran-4-ylmethoxy)-pyrido[3,4-d]pyrimidin-4-amine]	1790 nM	1960 nM	–
Cc1nc(NC(C)c2ccc(-c3ccccc3CN(C)C)s2)c2cc(OCCO)ncc2n1 (centres unmarked) [Example 74, 2-[(4-{[1-(5-{2-[(dimethylamino)methyl]phenyl}thiophen-2-yl)ethyl]amino}-2-methylpyrido[3,4-d]pyrimidin-6-yl)oxy]ethanol]	55.2 nM	92.8 nM	–
Cc1nc(N[C@H](C)c2cccc(Br)c2)c2nc(N3CCOCC3)ccc2n1 [Example 27, N-[(1R)-1-(3-bromophenyl)ethyl]-2-methyl-6-(morpholin-4-yl)pyrido[3,2-d]pyrimidin-4-amine]	2580 nM	1840 nM	–
Cc1nc(N[C@H](C)c2cccc(Br)c2)c2nc(OCc3ccccc3)ccc2n1 [Example 33, 6-(benzyloxy)-N-[(1R)-1-(3-bromophenyl)ethyl]-2-methylpyrido[3,2-d]pyrimidin-4-amine]	–	> 20000 nM	29.3%
Cc1nc(N[C@H](C)c2cccc(Br)c2)c2cc(NC3CCOCC3)ncc2n1 [Example 46]	1290 nM	4220 nM	–
Cc1nc(N[C@H](C)c2cccc(Br)c2)c2cc(NCCn3cccn3)ncc2n1 [Example 49, N4-[(1R)-1-(3-bromophenl)pethyl]-2-methyl-N6-[2-(1H-pyrazol-1-yl)ethyl]pyrido[3,4-d]pyrimidine-4,6-diamine]	1210 nM	3630 nM	–
Cc1nc(N[C@H](C)c2ccc(F)cc2)c2cc(OC(C)C)ncc2n1 [Example 15]	1480 nM	1900 nM	–
Cc1nc(NC(C)c2ccc(-c3ccccc3CN(C)C)s2)c2cc(Oc3cccc(O)c3)ncc2n1 (centres unmarked) [Example 52, 3-[(4-{[1-(5-{2-[(dimethylamino)methyl]phenyl}thiophen-2-yl)ethyl]amino}-2-methylpyrido[3,4-d]pyrimidin-6-yl)oxy]phenol]	202 nM	856 nM	–
COc1ncc2nc(C)nc(N[C@H](C)c3cccc(Br)c3)c2n1 [Example 24, N-[(1R)-1-(3-bromophenyl)ethyl]-6-methoxy-2-methylpyrimido[5,4-d]pyrimidin-4-amine]	9410 nM	9710 nM	–
Cc1nc(NC(C)c2ccc(-c3ccccc3CN(C)C)s2)c2cc(OCCCO)ncc2n1 (centres unmarked) [Example 76, 3-[(4-{[1-(5-{2-[(dimethylamino)methyl]phenyl}thiophen-2-yl)ethyl]amino}-2-methylpyrido[3,4-d]pyrimidin-6-yl)oxy]propan-1-ol]	45.2 nM	49.9 nM	–
COc1cc2c(N[C@H](C)c3cccc(Br)c3)nc(C)nc2cn1 [Example 57, N-[(1R)-1-(3-bromophenyl)ethyl]-6-methoxy-2-methylpyrido[3,4-d]pyrimidin-4-amine]	1970 nM	1230 nM	–
Cc1nc(NC(C)c2ccc(-c3ccccc3CN(C)C)s2)c2cc(N3CC(NS(=O)(=O)Cc4ccccc4)C3)ncc2n1 (centres unmarked) [Example 95, N-[1-(4-{[1-(5-{2-[(dimethylamino)methyl]phenyl}thiophen-2-yl)ethyl]amino}-2-methylpyrido[3,4-d]pyrimidin-6-yl)azetidin-3-yl]-1-phenylmethanesulfonamide]	107 nM	240 nM	–
Cc1nc(N[C@H](C)c2cccc(Br)c2)c2cc(NCCS(C)(=O)=O)ncc2n1 [Example 83]	575 nM	1340 nM	–
Cc1nc(NC(C)c2ccc(-c3ccccc3CN(C)C)s2)c2cc(N3CC(NC(=O)Nc4ccccc4)C3)ncc2n1 (centres unmarked) [Example 96, 1-[1-(4-{[1-(5-{2-[(dimethylamino)methyl]phenyl}thiophen-2-yl)ethyl]amino}-2-methylpyrido[3,4-d]pyrimidin-6-yl)azetidin-3-yl]-3-phenylurea]	76.6 nM	226 nM	–
Cc1nc(NC(C)c2ccc(-c3ccccc3CN(C)C)s2)c2cc(N3CC(NC(=O)Cc4ccccc4)C3)ncc2n1 (centres unmarked) [Example 89, N-[1-(4-{[1-(5-{2-[(dimethylamino)methyl]phenyl}thiophen-2-yl)ethyl]amino}-2-methylpyrido[3,4-d]pyrimidin-6-yl)azetidin-3-yl]-2-phenylacetamide]	44.4 nM	111 nM	–
CCOc1cc2c(N[C@H](C)c3ccc(Br)cc3)nc(C)nc2cn1 [Example 13, N-[(1R)-1-(4-bromophenyl)ethyl]-6-ethoxy-2-methylpyrido[3,4-d]pyrimidin-4-amine]	1220 nM	1780 nM	–

Compound	IC50 [1]	IC50 [2]	inhibition at 20 µM [1]
CCOc1cc2c(N[C@H](C)c3cccc(S(C)(=O)=O)c3)nc(C)nc2cn1 [Example 7, 6-ethoxy-2-methyl-N-{(1R)-1-[3-(methylsulfonyl)phenyl]ethyl}pyrido[3,4-d]pyrimidin-4-amine]	633 nM	1300 nM	–
Cc1nc(N[C@H](C)c2cccc(Br)c2)c2nc(Oc3ccccc3)ccc2n1 [Example 32, N-[(1R)-1-(3-bromophenyl)ethyl]-2-methyl-6-phenoxypyrido[3,2-d]pyrimidin-4-amine]	–	> 20000 nM	22.4%
COc1cc2c(N[C@H](C)c3ccc(F)c(Cl)c3)nc(C)nc2cn1 [Example 8]	5490 nM	4890 nM	–
Cc1nc(NC(C)c2ccc(-c3ccccc3CN(C)C)s2)c2cc(OC3CCS(=N)(=O)CC3)ncc2n1 (centres unmarked) [Example 77, N-[1-(5-{2-[(dimethylamino)methyl]phenyl}-2-thienyl)ethyl]-6-[(1-imino-1-oxidohexahydro-1lambda4-thiopyran-4-yl)oxy]-2-methylpyrido[3,4-d]pyrimidin-4-amine]	49.8 nM	58.8 nM	–
COc1cc2c(NC(C)c3cccc4nn(C)cc34)nc(C)nc2cn1 (centres unmarked) [Example 17, 6-methoxy-2-methyl-N-[1-(2-methyl-2H-indazol-4-yl)ethyl]pyrido[3,4-d]pyrimidin-4-amine]	9190 nM	7730 nM	–
Cc1nc(N[C@H](C)c2cccc(Br)c2)c2cc(F)ncc2n1 [Example 34, N-[(1R)-1-(3-bromophenyl)ethyl]-6-fluoro-2-methylpyrido[3,4-d]pyrimidin-4-amine]	–	> 20000 nM	36.7%
CNCc1ccccc1-c1ccc(C(C)Nc2nc(C)nc3cnc(F)cc23)s1 (centres unmarked) [Example 36, 6-fluoro-2-methyl-N-[1-(5-{2-[(methylamino)methyl]phenyl}thiophen-2-yl)ethyl]pyrido[3,4-d]pyrimidin-4-amine]	9030 nM	19000 nM	–
COc1cc2c(NC(C)c3cccc4c3cnn4C)nc(C)nc2cn1 (centres unmarked) [Example 14, 6-methoxy-2-methyl-N-[1-(1-methyl-1H-indazol-4-yl)ethyl]pyrido[3,4-d]pyrimidin-4-amine]	1650 nM	1950 nM	–
Cc1nc(N[C@H](C)c2ccc(F)cc2)c2cc(F)ncc2n1 [Example 9]	–	17900 nM	54%
Cc1nc(NC(C)c2ccc(-c3ccccc3CN(C)C)s2)c2cc(C3CCN(C)C3=O)ncc2n1 (mixture of isomers) [Example 69, 3-(4-{[1-(5-{2-[(dimethylamino)methyl]phenyl}thiophen-2-yl)ethyl]amino}-2-methylpyrido[3,4-d]pyrimidin-6-yl)-1-methylpyrrolidin-2-one]	62.6 nM	98.3 nM	–
Cc1nc(NC(C)c2ccc(-c3ccccc3CN(C)C)s2)c2cc(N3CC(N)C3)ncc2n1 (centres unmarked) [Example 93, 6-(3-aminoazetidin-1-yl)-N-[1-(5-{2-[(dimethylamino)methyl]phenyl}thiophen-2-yl)ethyl]-2-methylpyrido[3,4-d]pyrimidin-4-amine]	33.5 nM	69.2 nM	–
Cc1nc(NC(C)c2ccc(-c3ccccc3CO)s2)c2cc(F)ncc2n1 (centres unmarked) [Example 68, [2-(5-{1-[(6-fluoro-2-methylpyrido[3,4-d]pyrimidin-4-yl)amino]ethyl}thiophen-2-yl)phenyl]methanol]	–	> 20000 nM	43.8%
Cc1nc(N[C@H](C)c2cccc(Br)c2)c2cc(NCCN3CCOCC3)ncc2n1 [Example 39]	876 nM	1360 nM	–
Cc1nc(NC(C)c2ccc(-c3ccccc3CN(C)C)s2)c2cc(N3CCC3)ncc2n1 (centres unmarked) [Example 71, 6-(azetidin-1-yl)-N-[1-(5-{2-[(dimethylamino)methyl]phenyl}thiophen-2-yl)ethyl]-2-methylpyrido[3,4-d]pyrimidin-4-amine]	51.1 nM	55.5 nM	–
Cc1nc(N[C@H](C)c2cccc(Br)c2)c2nc(OCc3ccccc3)ncc2n1 [Example 20, 6-(benzyloxy)-N-[(1R)-1-(3-bromophenyl)ethyl]-2-methylpyrimido[5,4-d]pyrimidin-4-amine]	–	> 20000 nM	30%
